Measurements from US10343992B2, “1-cyano-pyrrolidine compounds as USP30 inhibitors” (MISSION THERAPEUTICS LIMITED, priority 2015, dated 2019).

Each compound was assayed against USP30 (Homo sapiens (Human), UniProt Q70CQ3) (assay: USP30 biochemical FP or FI IC50 assay). Conditions: read-out: IC50 range.
Procedure, shortened: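 Human USP30 preincubated 30 min at room temperature with compound (8-point series, 100 µM top final) in Tris pH 7.5, Tween 20, BSA, 5 mM β-mercaptoethanol, in duplicate. FP format: 50 nM TAMRA-peptide–isopeptide-ubiquitin substrate, ex 540/em 590. FI format: 100 nM ubiquitin-rhodamine 110, ex 487/em 535. Both read at 0 and after 2 h at room temperature.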

Chain of USP30 (Q70CQ3 57-517): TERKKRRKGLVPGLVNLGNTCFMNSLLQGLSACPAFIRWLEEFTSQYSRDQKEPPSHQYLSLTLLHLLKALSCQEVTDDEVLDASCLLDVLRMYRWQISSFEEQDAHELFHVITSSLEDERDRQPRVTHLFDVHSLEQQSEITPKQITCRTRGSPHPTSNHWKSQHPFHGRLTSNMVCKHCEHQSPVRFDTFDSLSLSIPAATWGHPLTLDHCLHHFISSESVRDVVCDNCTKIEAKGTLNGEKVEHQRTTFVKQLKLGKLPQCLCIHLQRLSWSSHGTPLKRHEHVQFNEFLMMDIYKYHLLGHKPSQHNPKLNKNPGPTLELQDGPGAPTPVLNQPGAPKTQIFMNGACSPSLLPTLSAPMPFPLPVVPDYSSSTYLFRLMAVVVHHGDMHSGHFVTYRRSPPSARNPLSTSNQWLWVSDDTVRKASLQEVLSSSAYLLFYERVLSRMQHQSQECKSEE

IC50 | SMILES
100 to 1000 nM | N#CN1CC[C@@H](NC(=O)c2cc(-c3ccccn3)no2)C1 [Example 66, (R)-N-(1-cyanopyrrolidin-3-yl)-3-(pyridin-2-yl)isoxazole-5-carboxamide]
< 100 nM | N#CN1CC[C@@H](NC(=O)c2ccc(-c3cn[nH]c3C(F)(F)F)cc2F)C1 [Example 85, (R)-N-(1-cyanopyrrolidin-3-yl)-2-fluoro-4-(5-(trifluoromethyl)-1H-pyrazol-4-yl)benzamide]
100 to 1000 nM | N#CN1CC[C@@H](NC(=O)c2ccc(-c3ccnnc3)cc2F)C1 [Example 152, (R)-N-(1-cyanopyrrolidin-3-yl)-2-fluoro-4-(pyridazin-4-yl)benzamide]
100 to 1000 nM | Cn1cc(-c2ccc3c(C(=O)N[C@@H]4CCN(C#N)C4)n[nH]c3c2)cn1 [Example 127, (R)-N-(1-cyanopyrrolidin-3-yl)-6-(1-methyl-1H-pyrazol-4-yl)-1H-indazole-3-carboxamide]
100 to 1000 nM | N#CN1CC[C@@H](NC(=O)c2n[nH]c3ccccc23)C1 [Example 101, (R)-N-(1-cyanopyrrolidin-3-yl)-1H-indazole-3-carboxamide]
< 100 nM | COc1ccccc1-c1cc(C(=O)N[C@@H]2CCN(C#N)C2)n[nH]1 [Example 97, (R)-N-(1-cyanopyrrolidin-3-yl)-5-(2-methoxyphenyl)-1H-pyrazole-3-carboxamide]
100 to 1000 nM | N#CN1CC[C@@H](NC(=O)c2cc(-c3ccccc3)cnn2)C1 [Example 67, (R)—N-(1-cyanopyrrolidin-3-yl)-5-phenylpyridazine-3-carboxamide]
100 to 1000 nM | Cn1cc(-c2ccc(F)c(C(=O)N[C@@H]3CCN(C#N)C3)c2)cn1 [Example 107, (R)-N-(1-cyanopyrrolidin-3-yl)-2-fluoro-5-(1-methyl-1H-pyrazol-4-yl)benzamide]
100 to 1000 nM | N#CN1CC[C@@H](NC(=O)c2cc(-c3ccccc3)no2)C1 [Example 33, (R)-N-(1-cyanopyrrolidin-3-yl)-3-phenylisoxazole-5-carboxamide]
100 to 1000 nM | N#CN1CCC(NC(=O)c2cn(-c3ccccc3)cn2)C1 (racemic) [Example 9, N-(1-cyanopyrrolidin-3-yl)-1-phenyl-1H-imidazole-4-carboxamide]
< 100 nM | Cc1ccc(-c2cc(C(=O)N[C@@H]3CCN(C#N)C3)on2)cc1C [Example 271, (R)-N-(1-cyanopyrrolidin-3-yl)-3-(3,4-dimethylphenyl)isoxazole-5-carboxamide]
100 to 1000 nM | N#CN1CC[C@@H](NC(=O)c2cc(-c3cccnc3)no2)C1 [Example 65, (R)-N-(1-cyanopyrrolidin-3-yl)-3-(pyridin-3-yl)isoxazole-5-carboxamide]
100 to 1000 nM | Cn1cc(-c2ccc3c(C(=O)N[C@@H]4CCN(C#N)C4)cnn3c2)cn1 [Example 114, (R)-N-(1-cyanopyrrolidin-3-yl)-6-(1-methyl-1H-pyrazol-4-yl)pyrazolo[1,5-a]pyridine-3-carboxamide]
< 100 nM | Cc1ncc(F)c(-c2ccc(C(=O)N[C@@H]3CCN(C#N)C3)c(F)c2)n1 [Example 182, (R)-N-(1-cyanopyrrolidin-3-yl)-2-fluoro-4-(5-fluoro-2-methylpyrimidin-4-yl)benzamide]
100 to 1000 nM | N#CN1CC[C@@H](NC(=O)c2cc(-c3cccnc3)[nH]n2)C1 [Example 103, (R)-N-(1-cyanopyrrolidin-3-yl)-5-(pyridin-3-yl)-1H-pyrazole-3-carboxamide]

More lines, now with the values behind:

SMILES | IC50
N#CN1CCC(NC(=O)Cc2ccc(-c3ccccc3)cc2)C1 (racemic) [Example 16, 2-([1,1′-biphenyl]-4-yl)-N-(1-cyanopyrrolidin-3-yl)acetamide] | 1000 to 10000 nM
N#CN1CC[C@@H](NC(=O)N2CCC(c3ccccn3)C2)C1 (stereo partly drawn) [Example 225, N-((R)-1-cyanopyrrolidin-3-yl)-3-(pyridin-2-yl)pyrrolidine-1-carboxamide] | 1000 to 10000 nM
N#Cc1cccc(-c2ccc3nc(C(=O)N[C@@H]4CCN(C#N)C4)c(F)n3c2)c1 [Example 167, (R)-6-(3-cyanophenyl)-N-(1-cyanopyrrolidin-3-yl)-3-fluoroimidazo[1,2-a]pyridine-2-carboxamide] | < 100 nM
N#CN1CC[C@@H](NC(=O)c2ccc(N3CCCC3)cc2F)C1 [Example 143, (R)-N-(1-cyanopyrrolidin-3-yl)-2-fluoro-4-(pyrrolidin-1-yl)benzamide] | < 100 nM
Cc1nn(C)cc1-c1ccn2c(C(=O)N(C)[C@@H]3CCN(C#N)C3)cnc2c1 [Example 163, (R)-N-(1-cyanopyrrolidin-3-yl)-7-(1,3-dimethyl-1H-pyrazol-4-yl)-N-methylimidazo[1,2-a]pyridine-3-carboxamide] | 100 to 1000 nM
N#CN1CC[C@@H](NC(=O)N2CCCN(Cc3ccccc3)CC2)C1 [Example 138, (R)-4-benzyl-N-(1-cyanopyrrolidin-3-yl)-1,4-diazepane-1-carboxamide] | 100 to 1000 nM
CCN(C(=O)N1CC(c2ccccc2)C1)[C@@H]1CCN(C#N)C1 [Example 207, (R)-N-(1-cyanopyrrolidin-3-yl)-N-ethyl-3-phenylazetidine-1-carboxamide] | 100 to 1000 nM
CN(C(=O)c1cc2cc(-c3cnn(C)c3)ccc2[nH]1)[C@@H]1CCN(C#N)C1 [Example 157, (R)-N-(1-cyanopyrrolidin-3-yl)-N-methyl-5-(1-methyl-1H-pyrazol-4-yl)-1H-indole-2-carboxamide] | < 100 nM
N#CN1CC[C@@H](NC(=O)N2CC(c3ccnc(-c4ccccc4)n3)C2)C1 [Example 236, (R)-N-(1-cyanopyrrolidin-3-yl)-3-(2-phenylpyrimidin-4-yl)azetidine-1-carboxamide] | 100 to 1000 nM
N#CN1C[C@H]2CCN(C(=O)c3cn(-c4ccccc4)cn3)[C@H]2C1 (racemic) [Example 54, rac-(3aR,6aR)-1-(1-phenyl-1H-imidazole-4-carbonyl)hexahydropyrrolo[3,4-b]pyrrole-5(1H)-carbonitrile] | 100 to 1000 nM
N#CN1CC[C@@H](NC(=O)N2CCC(c3ccccc3)C2)C1 (stereo partly drawn) [Example 46, N-((R)-1-cyanopyrrolidin-3-yl)-3-phenylpyrrolidine-1-carboxamide] | 100 to 1000 nM
N#CN1CC[C@@H](NC(=O)N2CCc3c([nH]c4ccccc34)C2)C1 [Example 139, (R)-N-(1-cyanopyrrolidin-3-yl)-1,3,4,9-tetrahydro-2H-pyrido[3,4-b]indole-2-carboxamide] | 100 to 1000 nM
N#CN1C[C@H]2CCN(C(=O)Nc3ccc(-c4ccccc4)cn3)[C@H]2C1 [Example 202, (3aR,6aR)-5-cyano-N-(5-phenyl-pyridin-2-yl)hexahydropyrrolo[3,4-b]pyrrole-1(2H)-carboxamide] | < 100 nM
COc1ccc(-c2cc(C(=O)N3CC[C@@H]4CN(C#N)C[C@@H]43)[nH]n2)cc1 (racemic) [Example 55, rac-(3aR,6aR)-1-(3-(4-methoxyphenyl)-1H-pyrazole-5-carbonyl)hexahydropyrrolo[3,4-b]pyrrole-5(1H)-carbonitrile] | 100 to 1000 nM
C[C@H]1CN(C#N)C[C@@H]1NC(=O)c1cnc(-c2ccccc2)s1 [Example 71, N-((3R,4S)-1-cyano-4-methylpyrrolidin-3-yl)-2-phenylthiazole-5-carboxamide] | 100 to 1000 nM
N#CN1C[C@H]2CCN(C(=O)c3cc(-c4ccccc4)n[nH]3)[C@H]2C1 (stereo in doubt) [Example 246, 1-(3-phenyl-1H-pyrazole-5-carbonyl)hexahydropyrrolo[3,4-b]pyrrole-5(1H)-carbonitrile] | 100 to 1000 nM
N#CN1CCC(NC(=O)c2ccc(N3CCC(c4ccncc4)CC3)nc2)C1 (racemic) [Example 23, N-(1-cyanopyrrolidin-3-yl)-6-(4-(pyridin-4-yl)piperidin-1-yl)nicotinamide] | 100 to 1000 nM
N#CN1CCC(NC(=O)Nc2cccc(Oc3ccccc3)c2)C1 (stereo not drawn) [Example 255, 1-(1-cyanopyrrolidin-3-yl)-3-(3-phenoxyphenyl)urea] | < 100 nM
CN(C(=O)N1CCc2ccccc21)[C@@H]1CCN(C#N)C1 [Example 265, (R)-N-(1-cyanopyrrolidin-3-yl)-N-methylindoline-1-carboxamide] | 1000 to 10000 nM
CN(C(=O)Nc1ccc(C(F)(F)F)cc1)[C@@H]1CCN(C#N)C1 [Example 195, (R)-1-(1-cyanopyrrolidin-3-yl)-1-methyl-3-(4-(trifluoromethyl)phenyl)urea] | 100 to 1000 nM
Cn1cc(-c2ccc3nc(C(=O)N[C@@H]4CCN(C#N)C4)cn3c2)cn1 [Example 124, (R)-N-(1-cyanopyrrolidin-3-yl)-6-(1-methyl-1H-pyrazol-4-yl)imidazo[1,2-a]pyridine-2-carboxamide] | 100 to 1000 nM
N#CN1CC[C@@H](NC(=O)N2CCOC(c3ccccc3)C2)C1 (stereo partly drawn) [Example 136, N-((R)-1-cyanopyrrolidin-3-yl)-2-phenylmorpholine-4-carboxamide] | 100 to 1000 nM
COc1ccc(-c2cc(C(=O)N3CC[C@@H]4CN(C#N)C[C@@H]43)on2)cc1 (racemic) [Example 56, rac-(3aR,6aR)-1-(3-(4-methoxyphenyl)isoxazole-5-carbonyl)hexahydropyrrolo[3,4-b]pyrrole-5(1H)-carbonitrile] | 100 to 1000 nM
CCOC(=O)N1CCN(c2ccc(C(=O)NC3CCN(C#N)C3)cn2)CC1 (racemic) [Example 20, ethyl 4-(5-((1-cyanopyrrolidin-3-yl)carbamoyl)pyridin-2-yl)piperazine-1-carboxylate] | 1000 to 10000 nM
Cn1cc(-c2cc(F)c(C(=O)N[C@@H]3CCN(C#N)C3)cc2F)cn1 [Example 78, (R)-N-(1-cyanopyrrolidin-3-yl)-2,5-difluoro-4-(1-methyl-1H-pyrazol-4-yl)benzamide] | < 100 nM
N#CN1C[C@H]2CCN(C(=O)N3CC(Oc4ccccc4)C3)[C@H]2C1 [Example 247, (3aR,6aR)-1-(3-phenoxyazetidine-1-carbonyl)hexahydropyrrolo[3,4-b]pyrrole-5(1H)-carbonitrile] | 100 to 1000 nM
C[C@@H]1CN(C#N)C[C@H]1NC(=O)c1cnc(-c2ccccc2)s1 [Example 72, N-((3S,4R)-1-cyano-4-methylpyrrolidin-3-yl)-2-phenylthiazole-5-carboxamide] | < 100 nM
